Reference: ChEMBL document CHEMBL1201862, “PubChem BioAssay data set” (2004)
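In this assay, cells in 96-well plates receive the compound at five concentrations for 48 hours. Endpoints are linearly interpolated between the surrounding concentrations. GI50 marks 50% less growth.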 The source made the active and inactive calls. Cut-off read from the data, not from the text of the source: active = GI50 up to about 1.1 µM and inactive = higher.

Legend:
Experiment in all cases: growth of human tumour cells (NCI), 48 h
[1] = tested on: CCRF-CEM
[2] = tested on: COLO 205
[3] = tested on: DU-145
[4] = tested on: EKVX
[5] = tested on: HT-29
[6] = tested on: Hs-578T
[7] = tested on: K562
[8] = tested on: LOX IMVI
[9] = tested on: MCF7
[10] = tested on: Malme-3M
[11] = tested on: NCI-H23
[12] = tested on: OVCAR-5
[13] = tested on: OVCAR-8
[14] = tested on: SF-295
[15] = tested on: SK-MEL-28
[16] = tested on: SK-MEL-2
[17] = tested on: SNB-19
[18] = tested on: HCC 2998
[19] = tested on: NCI-H226
[20] = tested on: OVCAR-4

| SMILES | GI50 [1] | GI50 [2] | GI50 [3] | GI50 [4] | GI50 [5] | GI50 [6] | GI50 [7] | GI50 [8] | GI50 [9] | GI50 [10] | GI50 [11] | GI50 [12] | GI50 [13] | GI50 [14] | GI50 [15] | GI50 [16] | GI50 [17] | GI50 [18] | GI50 [19] | GI50 [20] |
| --- | --- | --- | --- | --- | --- | --- | --- | --- | --- | --- | --- | --- | --- | --- | --- | --- | --- | --- | --- | --- |
| Cc1cc2c(cc1C)[n+]([O-])c(C(F)(F)F)c(C(=O)c1ccccc1)[n+]2[O-] | 2.02 µM (inactive) | 1.82 µM (inactive) | 1.62 µM (inactive) | 0.785 µM (active) | 1.71 µM (inactive) | 2.58 µM (inactive) | 2.27 µM (inactive) | 2.17 µM (inactive) | 3.27 µM (inactive) | 2.39 µM (inactive) | 2.12 µM (inactive) | 3.08 µM (inactive) | 2.93 µM (inactive) | 2.4 µM (inactive) | 4.52 µM (inactive) | 4.89 µM (inactive) | 3.56 µM (inactive) | – | – | – |
| CC1=Cc2ccc(C)cc2C(=O)C1=O | 0.176 µM (active) | 6.07 µM (inactive) | 16.8 µM (inactive) | 18.3 µM (inactive) | 20.1 µM (inactive) | 13.9 µM (inactive) | 2.07 µM (inactive) | 4.66 µM (inactive) | 6.97 µM (inactive) | – | 17.3 µM (inactive) | 18.3 µM (inactive) | 5.3 µM (inactive) | 18.5 µM (inactive) | 21.6 µM (inactive) | 19.9 µM (inactive) | 22.2 µM (inactive) | 14.9 µM (inactive) | 36.1 µM (inactive) | 4.94 µM (inactive) |
| O=[N+]([O-])c1ccc(/C=C(/c2ccc([N+](=O)[O-])o2)S(=O)(=O)c2ccccc2)o1 | – | 2.13 µM (inactive) | 14.8 µM (inactive) | 0.0885 µM (active) | 4.49 µM (inactive) | 15.4 µM (inactive) | 2.96 µM (inactive) | – | 11.8 µM (inactive) | 2.45 µM (inactive) | 19.7 µM (inactive) | 18.6 µM (inactive) | 4.49 µM (inactive) | 18.6 µM (inactive) | 15.6 µM (inactive) | 17.4 µM (inactive) | 20.1 µM (inactive) | – | 1.42 µM (inactive) | 4.22 µM (inactive) |
| CC(C)OC(=O)c1ccc(NCC2=CC(=O)C=CC2=O)cc1Cl | 0.448 µM (active) | 4.07 µM (inactive) | 18.3 µM (inactive) | 15.4 µM (inactive) | 16.3 µM (inactive) | 23.3 µM (inactive) | 2.73 µM (inactive) | 10.5 µM (inactive) | 14.9 µM (inactive) | – | 13.2 µM (inactive) | 22.2 µM (inactive) | 5.68 µM (inactive) | 17.8 µM (inactive) | 17.2 µM (inactive) | 31.7 µM (inactive) | 6.11 µM (inactive) | 15.2 µM (inactive) | 25.7 µM (inactive) | 12.7 µM (inactive) |
| NNc1nncn1N | 1.25 µM (inactive) | > 100 µM (inactive) | > 55.2 µM (inactive) | > 100 µM (inactive) | > 100 µM (inactive) | > 100 µM (inactive) | > 76 µM (inactive) | > 90.4 µM (inactive) | > 100 µM (inactive) | > 55 µM (inactive) | > 51.2 µM (inactive) | > 100 µM (inactive) | > 96.6 µM (inactive) | > 100 µM (inactive) | > 100 µM (inactive) | > 100 µM (inactive) | > 100 µM (inactive) | – | > 100 µM (inactive) | 38.1 µM (inactive) |
| O=C(NC(Cc1ccccc1)P(=O)(O)c1ccccc1)OCc1ccccc1 (stereo not drawn) | > 100 µM (inactive) | > 100 µM (inactive) | > 100 µM (inactive) | > 100 µM (inactive) | > 100 µM (inactive) | > 100 µM (inactive) | > 100 µM (inactive) | > 100 µM (inactive) | > 100 µM (inactive) | > 100 µM (inactive) | > 100 µM (inactive) | > 100 µM (inactive) | > 100 µM (inactive) | > 100 µM (inactive) | > 100 µM (inactive) | – | > 100 µM (inactive) | – | > 100 µM (inactive) | > 100 µM (inactive) |
| N#CC(C#N)=C/C=C(\Sc1c(Cl)c(Cl)nc(Cl)c1Cl)c1ccc(Cl)cc1 | 4.74 µM (inactive) | 24.4 µM (inactive) | 21.1 µM (inactive) | 32.4 µM (inactive) | 18 µM (inactive) | 15.7 µM (inactive) | 5.93 µM (inactive) | 5.56 µM (inactive) | 31.1 µM (inactive) | 23 µM (inactive) | 16.2 µM (inactive) | 21.5 µM (inactive) | 5.05 µM (inactive) | 19 µM (inactive) | 19.2 µM (inactive) | 32.4 µM (inactive) | 20.7 µM (inactive) | – | 23 µM (inactive) | 29.9 µM (inactive) |
| COCN1C(=O)[C@@H]2CCCN2C(=O)c2ccc([N+](=O)[O-])cc21 | > 100 µM (inactive) | > 100 µM (inactive) | > 100 µM (inactive) | > 100 µM (inactive) | > 100 µM (inactive) | > 100 µM (inactive) | > 100 µM (inactive) | > 100 µM (inactive) | > 100 µM (inactive) | – | > 100 µM (inactive) | > 100 µM (inactive) | > 100 µM (inactive) | > 100 µM (inactive) | > 100 µM (inactive) | > 100 µM (inactive) | > 100 µM (inactive) | > 100 µM (inactive) | > 100 µM (inactive) | > 100 µM (inactive) |
| COc1ccc(C(OCC2OC(n3ccc(Oc4c(F)c(F)c(F)c(F)c4F)nc3=O)CC2OP(OCCC#N)N(C(C)C)C(C)C)(c2ccccc2)c2ccc(OC)cc2)cc1 (stereo not drawn) | 77.3 µM (inactive) | > 100 µM (inactive) | > 100 µM (inactive) | > 10 µM (inactive) | > 100 µM (inactive) | > 100 µM (inactive) | > 100 µM (inactive) | > 100 µM (inactive) | > 100 µM (inactive) | – | 42.8 µM (inactive) | > 100 µM (inactive) | > 100 µM (inactive) | > 100 µM (inactive) | > 100 µM (inactive) | > 100 µM (inactive) | > 100 µM (inactive) | > 100 µM (inactive) | > 100 µM (inactive) | – |
| CC(=O)C(=C(c1ccccc1)c1ccccc1)c1ccccc1 | 40.7 µM (inactive) | > 100 µM (inactive) | > 100 µM (inactive) | 15.6 µM (inactive) | > 100 µM (inactive) | > 100 µM (inactive) | 62.7 µM (inactive) | > 100 µM (inactive) | > 100 µM (inactive) | > 100 µM (inactive) | > 100 µM (inactive) | > 100 µM (inactive) | > 100 µM (inactive) | > 100 µM (inactive) | > 100 µM (inactive) | – | > 100 µM (inactive) | > 100 µM (inactive) | > 100 µM (inactive) | 70 µM (inactive) |
| O=C1NN(Cc2ccccc2)C(=O)N2CCC[C@@H]12 | > 100 µM (inactive) | > 100 µM (inactive) | > 100 µM (inactive) | > 100 µM (inactive) | > 100 µM (inactive) | > 100 µM (inactive) | – | > 100 µM (inactive) | > 100 µM (inactive) | > 100 µM (inactive) | > 100 µM (inactive) | > 100 µM (inactive) | > 100 µM (inactive) | > 100 µM (inactive) | > 100 µM (inactive) | > 100 µM (inactive) | > 100 µM (inactive) | > 100 µM (inactive) | 0.0505 µM (active) | > 100 µM (inactive) |
| O=C(N/N=C1/C(=O)c2c3ccccc3cc3cccc1c23)c1ccccc1 | > 53.1 µM (inactive) | > 65.6 µM (inactive) | 4.49 µM (inactive) | 75.7 µM (inactive) | 30.2 µM (inactive) | 40.6 µM (inactive) | > 59.6 µM (inactive) | 37.9 µM (inactive) | 30.4 µM (inactive) | 33.5 µM (inactive) | 36.3 µM (inactive) | 34.3 µM (inactive) | 31.1 µM (inactive) | 20.5 µM (inactive) | > 54.8 µM (inactive) | 33.2 µM (inactive) | 35.8 µM (inactive) | – | > 43.8 µM (inactive) | 20.8 µM (inactive) |
| O=c1[nH]c2ccc(O)cc2o1 | > 100 µM (inactive) | > 100 µM (inactive) | > 100 µM (inactive) | > 100 µM (inactive) | > 100 µM (inactive) | > 100 µM (inactive) | > 100 µM (inactive) | – | > 100 µM (inactive) | 0.601 µM (active) | > 100 µM (inactive) | > 100 µM (inactive) | > 100 µM (inactive) | > 100 µM (inactive) | > 100 µM (inactive) | – | > 100 µM (inactive) | 2.56 µM (inactive) | > 100 µM (inactive) | > 100 µM (inactive) |
| CNc1nc2c(C)ccc3nc(N(C)C)nc-3c2n1C | > 10 µM (inactive) | > 10 µM (inactive) | > 10 µM (inactive) | > 10 µM (inactive) | > 10 µM (inactive) | > 10 µM (inactive) | > 10 µM (inactive) | – | > 10 µM (inactive) | > 10 µM (inactive) | > 10 µM (inactive) | > 10 µM (inactive) | > 10 µM (inactive) | > 10 µM (inactive) | > 10 µM (inactive) | > 10 µM (inactive) | > 10 µM (inactive) | > 10 µM (inactive) | > 10 µM (inactive) | > 10 µM (inactive) |
| N#Cc1nc2ccccc2nc1N1CCN(c2ccc([N+](=O)[O-])cc2)CC1 | > 100 µM (inactive) | > 100 µM (inactive) | > 100 µM (inactive) | > 100 µM (inactive) | > 100 µM (inactive) | > 100 µM (inactive) | – | > 100 µM (inactive) | > 100 µM (inactive) | > 100 µM (inactive) | > 100 µM (inactive) | > 100 µM (inactive) | > 100 µM (inactive) | > 100 µM (inactive) | > 100 µM (inactive) | > 100 µM (inactive) | > 100 µM (inactive) | > 100 µM (inactive) | > 100 µM (inactive) | > 100 µM (inactive) |
